What was measured:
[1] = test system: EAC cells; assay: Tumor growth inhibition and morphological evaluation of mice with EAC; type: in vivo, Balb/c mice (Mus musculus); settings: 9 days treatment
Procedure: Female (18 to 23 g weight, 60 days) Balb/c mice (Mus musculus) obtained from controlled reproduction carried out in the sectoral bioterium of the Federal University of Santa Catarina (Brazil), were kept in plastic cages under controlled environmental conditions (12 h light-dark cycle, 25±2° C., relative humidity 60%), receiving commercial feed and water ad libitum.
The moment before the tumor was inoculated, the abdominal circumference was measured. The treatments were administered intraperitoneally for 9 consecutive days. Twenty-four hours after the last treatment, all mice were weighed and their abdominal circumferences measured again. The inhibition (%) of tumour growth was calculated as follow: [(average in waist circumference of the treated group×100)/average in waist circumference of the control group]−100.
(§1) In addition, after euthanasia, all ascitic fluid was collected to measure volume and weight. Finally, Balb/c mice (n=12) were chosen at random and kept alive to assess the effects of HMB, Doxo and Doxo+HMB on survival time according to Kaplan and Meier (1958); survival assessments were discontinued after 30 days.

[2] = test system: EAC cells; assay: Survival assessment of mice with EAC (Kaplan and Meier); type: in vivo, Balb/c mice (Mus musculus); settings: for Mean survival time: mice with EAC, n=12, observation discontinued after 30 days, Control 16 days
Text: as §1

[3] = test system: p53; assay: Western blotting of p53 in EAC cells; type: in vivo, Balb/c mice (Mus musculus); settings: p53/actin
Procedure: (§2) Apoptotic markers were evaluated by Western blotting. EAC cells were washed with PBS and lysed in RIPA buffer supplemented with 1% protease and 3% phosphatase inhibitors. The proteins were further denatured in Laemmli buffer and equivalent amounts were subjected to SDS-PAGE electrophoresis, followed by electroblotting on PVDF membranes. The membranes were blocked and then incubated with the primary monoclonal antibodies: p53 (Santa Cruz Biotechnology, DO-1; sc-126), Bax (Santa Cruz Biotechnology, B-9; sc-7480) and BcL-xl (Santa Cruz Biotechnology, H-5; sc-8392), and subsequently incubated with peroxidase conjugated secondary antibodies (Dako and Chemicon). Immunodetection was performed using a chemiluminescence determination kit, and β-actin was used as a loading control. Images were obtained with the ChemiDoc MP (Bio Rad) system.

[4] = test system: Bax/Bcl-xl; assay: Western blotting of Bax and Bcl-xl in EAC cells (Bax/Bcl-xl ratio); type: in vivo, Balb/c mice (Mus musculus)
Procedure: as §2, with “EAC cells were washed with PBS and lysed in RIPA buffer supplemented with 1% protease and 3% phosphatase inhibitors.” left out, “control.” for “control. Images were obtained with the ChemiDoc MP (Bio Rad) system.”

[5] = Cachexia assessment (food intake, weight loss, muscle and fat mass) of mice with EAC; type: in vivo, Balb/c mice (Mus musculus); settings: 9 days; for Average daily food intake: Control 2.17±0.69, Normal 3.30±0.60; for Brown adipose tissue mass / Dry weight soleus muscle / Mesenteric fat mass / Subcutaneous fat mass / Wet weight gastrocnemius muscle / Wet weight soleus muscle: mean ± SD, n=6
Text: To determine average daily food intake, the weight of the feed consumed was divided by the number of animals in each cage. To evaluate the percentage of weight loss, the “initial weight” (before inoculation of the EAC), “final weight” (after 9 days of treatment) and “carcass weight” (final weight−weight of ascitic liquid) were considered according to standardized equation [27].
The soleus and gastrocnemius muscles were quickly removed and weighed on an analytical balance (wet mass). Soleus samples were used to determine the dry weight after 3 days at 60° C., and the gastrocnemius was kept at −80° C. for the determination of cytokines. The wet mass of the gastrocnemius and soleus muscle (mg) was normalized by the length of the tibia (mm) of the mice. Subcutaneous fat deposits, mesentery and brown adipose tissue were also removed and immediately weighed.

[6] = test system: IL-1β; assay: IL-1β in gastrocnemius muscle by ELISA; type: in vivo, Balb/c mice (Mus musculus)
Procedure: (§3) For the determination of cytokines, the gastrocnemius muscle was homogenized in a RIPA buffer supplemented with 1% protease and 3% phosphatase inhibitors, in the proportion 1 mg tissue:10 μl buffer, followed by centrifugation of the homogenate at 12,000 g and 4° C., for 10 minutes. An aliquot of the supernatant was used to determine the cytokines IL-1β and IL-6 by ELISA immunoassay using DuoSet® Kit (R&D System, USA), according to the manufacturer recommendations.

[7] = test system: IL-6; assay: IL-6 in gastrocnemius muscle by ELISA; type: in vivo, Balb/c mice (Mus musculus); settings: in relation to the Control group
Procedure: as §3

[8] = test system: C-reactive protein; assay: Serum C-reactive protein (Ultra Turbiquest Plus CRP kit); type: in vivo, Balb/c mice (Mus musculus); settings: for Serum C-reactive protein levels: mice with EAC, 9 days, Control 1.63, Normal 0.07
Procedure: The determination of C-reactive protein (CRP) in serum was performed by the Ultra Turbiquest Plus® CRP kit, according to the manufacturer instructions.

[9] = test system: EAC cells; assay: Assessment of death type in harvested tumor cells (propidium iodide/acridine orange)
Procedure: The mice were divided into 5 groups (n=6): Normal (healthy animals), Control (saline), Doxo (1 mg/kg/day), HMB (617.3 mg calcium HMB/kg/day) and Doxo+HMB (1 mg/kg/day and 617.3 mg/kg/day, respectively). The animals belonging to the Control, Doxo, HMB and Doxo+HMB groups were inoculated with EAC cells (200 μL, 5×10^6 cells) by intraperitoneal injection and treatment of animals was started after 96 hours. The dose of HMB was defined based on the recommendation for adult men of 70 kg, that is, 3 g/day (supplementary form) [21].
Harvested tumor cells (5×10^6) were stained with 1 μL of a solution (1:1) of propidium iodide (100 μg/mL) and acridine orange (100 μg/mL). The samples were read by fluorescence microscopy on the green (excitation at 460 nm and emission at 520 nm) and red (excitation at 492 nm at emission at 620 nm) filters, and the results were expressed as percentage of viable (green), apoptotic (orange) and necrotic (red) cells [24].

[10] = test system: COX-2; assay: COX-2 expression in EAC cells by Western blotting; type: in vivo, Balb/c mice (Mus musculus); settings: COX-2/actin in EAC cells
Procedure: as §2
The COX-2 expression in EAC cells was assessed by Western blotting as described in item 2.2.3. Antibodies to COX-2 were purchased from Cell Signaling (#4842)

[11] = test system: tumors injected into the peritoneal cavity; settings: rats; cited from earlier work
[12] = serum HMB levels; cited from earlier work
[13] = EAC cells harvested after 9 days treatment

SMILES	Mean survival time [2] [days]	Increase of p53 expression in relation to the Control group [3] [%]	Average daily food intake [5] [g/day]	Brown adipose tissue mass [5] [mg/cm mouse length]	Dry weight soleus muscle [5] [mg/mm tibia length]	Mesenteric fat mass [5] [mg/cm mouse length]	Subcutaneous fat mass [5] [mg/cm mouse length]	Wet weight gastrocnemius muscle [5] [mg/mm tibia length]	Wet weight soleus muscle [5] [mg/mm tibia length]	Reduction of IL-6 [7] [%]	Serum C-reactive protein levels [8] [mg/L]	other results
COc1cccc2c1C(=O)c1c(O)c3c(c(O)c1C2=O)C[C@@](O)(C(=O)CO)C[C@@H]3O[C@H]1C[C@H](N)[C@H](O)[C@H](C)O1 [Doxo, doxorubicin]	26	20	2.22 ± 0.63	3.6 ± 1.7	0.1 ± 0.01	2.5 ± 0.6	2.2 ± 0.3	11.7 ± 0.2	0.7 ± 0.15	43	2.39	Inhibition of tumor growth ([1]; from waist circumference, in relation to the Control group, n=6): 42%; Reduction of body weight variation in relation to the Control group ([1]; mice with EAC): 39%; Reduction of volume of ascitic liquid in relation to the Control group ([1]; mice with EAC): 54%; Surviving animals at the end of the observation period ([2]; n=12, 30 days): 3 animals; Increase of Bax/Bcl-xL ratio in relation to the Control [4]: 38%; Attenuation of weight loss in relation to controls ([5]; EAC caused 11% body weight loss): 54%; Reduction of IL-1β content in relation to controls [6]: 6%; Increase in C-reactive protein levels compared to controls ([8]; serum): 47%; Apoptotic cells [9, 13]: 4%; Necrosis (necrotic cells) [9, 13]: 36%; Viable cells [9, 13]: 60%; Percentage of death induced by each treatment ([9]; as restated in the discussion): 36%
CC(C)(O)CC(=O)O [HMB, β-hydroxy-β-methylbutyrate]	13.5	10	2.81 ± 1.05	3.2 ± 0.3	0.1 ± 0.04	3.0 ± 0.8	1.9 ± 1.1	8.9 ± 0.5	0.8 ± 0.2	64	0.31	Reduction of COX-2 expression compared to controls [10]: 4%; Improved survival [11]: 42%
CC(C)(O)CC(=O)O [free acid form of HMB, β-hydroxy-β-methylbutyric acid]	–	–	–	–	–	–	–	–	–	–	–	Absorption compared with CaHMB [12]: more rapidly absorbed than CaHMB

Reference: patent publication US20230263751A1, “Compositions and Methods of Use of beta-hydroxy-beta-methylbutyrate (HMB) and Chemotherapy Agents” (Metabolic Technologies, LLC, priority 2020, published 2023)
